According to article PMC9021288 (Nature Communications, 2022):
Where “and” joins values, the source holds several entries; their conditions need not be identical. Equal values may be shown once. Entries after “also recorded” stand apart in the source; their conditions may differ.

What was measured:
[1] = tested on: P. falciparum NF54 asexual blood-stage parasites; parameters: method as in earlier work; conditions: ref 15 (Schalkwijk et al.); cited from earlier work
[2] = tested on: P. falciparum NF54 rings and schizonts; experiment: Stage-specific activity on synchronized ring and schizont cultures; type: cell-based, Plasmodium falciparum
Method: Asynchronous NF54 parasites were cultured in a semi-automated shaker system[63] and synchronized once with 5% D-sorbitol. […] This yielded a parasite culture with ≥ 90% rings. To assess the schizont-stage activity of MMV693186, the initial synchronized culture was treated again with sorbitol 7 h later. Subsequently, parasites were cultured for another 17 h to yield a parasite culture of ≥ 90% early schizont stages. The ring and schizont synchronized cultures were diluted to 0.5% and then incubated with either 50 nM DHA or 50 nM MM693183 for 24 h in duplicate. Subsequently, the drug was washed out and parasites were cultured for another 24 h. Parasitemia was determined using Giemsa-stained thin smears at 0 h, 24 h, and 48 h after drug exposure.

Pharmacokinetics in mice = type: in vivo, male CD1 mice
Method: (§1) Subsequently, samples were spun down at 1640 g for 5-10 min at 4 °C within 30 min after collection and plasma was collected. […] Urine was collected following an intravenous dose in both rat and dog, allowing renal clearance to be estimated. Human renal clearance was estimated from dog renal clearance as previously described[40] and other human PK parameters were predicted using allometric scaling and/or in vitro clearance data. PK parameters were calculated by naïve pooled approach using WinNonLin software (Phoenix, version 6.3).

Renal excretion in rats = type: in vivo, rat
Method: as §1, with “A blood sample from the saphenous vein was collected into heparinized capillary tubes at multiple intervals between 0.25 and 24 h after dosing. Subsequently,” for “Subsequently,”

[3] = Human PK prediction (allometry, in vitro clearance, GastroPlus)
Method: as §1, with “A blood sample from the saphenous vein was collected into heparinized capillary tubes at multiple intervals between 0.25 and 24 h after dosing. Subsequently,” for “Subsequently,”

[4] = tested on: human primary hepatocytes; experiment: Primary hepatocyte viability (CellTiter-Blue), human; type: cell-based; conditions: for %Viability: Human primary hepatocytes
Method: Safety studies were performed by commercial services using their standard protocols. […] Genotoxicity was investigated using the Ames test (Bacterial Reverse Mutation Assay) (Covance Laboratories Ltd, North Yorkshire, England). In vitro mammalian cell micronucleus screening assay was studied in human peripheral blood lymphocytes (BioReliance Corporation, Rockville, USA). Cardiotoxicity was determined against the hERG channel in an automated patch clamp assay using the Qpatch or against the hNaV 1.5, hKV 1.5 and hCaV 1.2 using a manual patch-clamp technique (Metrion Biosciences, Cambridge, UK). Cytotoxicity in human and rat primary hepatocytes was assessed using the CellTiter-Blue assay performed by commercial services (KaLy-Cell). The viability of HepG2 cells was monitored through the addition of 1 mM resazurin. Following 6 h incubation, the relative amount of reduced resazurin was detected in a fluorimeter and compared to the assay controls (vehicle: 0.1% DMSO and positive control: 10 µM puromycin).

[5] = Plasma protein binding, human
[6] = tested on: human G6PD-A-deficient RBCs; experiment: Hemolytic toxicity in NSG mice engrafted with G6PD-deficient human RBCs; conditions: for Hematocrit / Spleen weight: individual mice
Method: Hemolytic toxicity was determined in female NSG mice (Jackson Laboratories) using erythrocytes from a G6PD-A-deficient blood donor (0.4 u/g hemoglobin).

[7] = 10 mg/kg group, day 0, individual mice
[8] = 10 mg/kg group, day 4, individual mice
[9] = 10 mg/kg group, day 7, individual mice
[10] = 25 mg/kg group, day 0, individual mice
[11] = 25 mg/kg group, day 4, individual mice
[12] = 25 mg/kg group, day 7, individual mice
[13] = 50 mg/kg group, day 0, individual mice
[14] = 50 mg/kg group, day 4, individual mice
[15] = 50 mg/kg group, day 7, individual mice

SMILES: CC(CNC(=O)C(O)C(C)(C)CO)NC(=O)CCc1ccccc1F (stereo in doubt) [MMV689258]
- IC50 [1]: 5 nM

SMILES: C[C@@H](CNC(=O)[C@H](O)C(C)(C)CO)NC(=O)c1cc(F)c(F)cc1F [MMV693183]
- activity against asexual stages ([2]; 50 nM, 24 h): active against both early and late asexual blood stages
- Parasitemia, rings culture ([2]; Time (h) 0): 0.4
- Parasitemia, rings culture ([2]; Time (h) 24): 0
- Parasitemia, schizonts culture ([2]; Time (h) 0): 0.2
- Parasitemia, schizonts culture ([2]; Time (h) 24): 0
- Observed hepatic/ predicted hepatic (Pharmacokinetics in mice; Mouse): < 1.9
- Observed total-renal = observed hepatic (Pharmacokinetics in mice; Mouse): < 13.4 mL/min/kg
- Predicted hepatic plasma clearance (Pharmacokinetics in mice; Mouse, from in vitro hepatic clearance, Fu,p and B:P): 7 mL/min/kg and 7.0 mL/min/kg
- Norm. conc i.v. (Pharmacokinetics in mice; Mouse, Time (hrs) 0): 0 ng/mL
- Norm. conc i.v. (Pharmacokinetics in mice; Mouse, Time (hrs) 0.083333): 1320 ng/mL and 1393.33 ng/mL and 1330 ng/mL
- Norm. conc i.v. (Pharmacokinetics in mice; Mouse, Time (hrs) 0.25): 846.667 ng/mL and 920 ng/mL and 863.333 ng/mL
- Norm. conc i.v. (Pharmacokinetics in mice; Mouse, Time (hrs) 0.5): 636.667 ng/mL and 626.667 ng/mL and 630 ng/mL
- Norm. conc i.v. (Pharmacokinetics in mice; Mouse, Time (hrs) 1): 324.667 ng/mL and 366.667 ng/mL and 300 ng/mL
- Norm. conc i.v. (Pharmacokinetics in mice; Mouse, Time (hrs) 2): 132.333 ng/mL and 151 ng/mL and 104 ng/mL
- Norm. conc i.v. (Pharmacokinetics in mice; Mouse, Time (hrs) 4): 39.3333 ng/mL and 48.3333 ng/mL and 26.9333 ng/mL
- Norm. conc p.o. (Pharmacokinetics in mice; Mouse, Time (hrs) 0): 0 ng/mL
- Norm. conc p.o. (Pharmacokinetics in mice; Mouse, Time (hrs) 0.25): 870 ng/mL and 850 ng/mL and 790 ng/mL
- Norm. conc p.o. (Pharmacokinetics in mice; Mouse, Time (hrs) 0.5): 610 ng/mL and 600 ng/mL and 553.333 ng/mL
- Norm. conc p.o. (Pharmacokinetics in mice; Mouse, Time (hrs) 1): 333.333 ng/mL and 313.333 ng/mL and 271.333 ng/mL
- Norm. conc p.o. (Pharmacokinetics in mice; Mouse, Time (hrs) 2): 115 ng/mL and 103.667 ng/mL and 65 ng/mL
- Norm. conc p.o. (Pharmacokinetics in mice; Mouse, Time (hrs) 24): 0.01333 ng/mL and 0.02 ng/mL
- AUC0-∞ (Pharmacokinetics in mice; i.v. 3 mg/kg, mean): 3764.7 ng·h/mL
- AUClast (Pharmacokinetics in mice; i.v. 3 mg/kg, mean): 3763.8 ng·h/mL
- C0 (Pharmacokinetics in mice; i.v. 3 mg/kg, mean): 5013.7 ng/mL
- Kel (Pharmacokinetics in mice; i.v. 3 mg/kg, mean): 0.58 h⁻¹
- Vss_obs (Pharmacokinetics in mice; i.v. 3 mg/kg, mean): 1.0265 L/kg
- CLtotal (Pharmacokinetics in mice; i.v. 3 mg/kg, mean, 3 mg/kg): 13.4 mL/min/kg and 13.36 mL/min/kg
- T1/2 (Pharmacokinetics in mice; i.v. 3 mg/kg, mean, 3 mg/kg): 1.2 h and 1.19 h
- share of total clearance contributed by the kidney (Pharmacokinetics in mice; mice): 48%
- clearance contributed by the kidney (Pharmacokinetics in mice; mice, total minus predicted hepatic): 6.4 mL/min/kg
- %F (Pharmacokinetics in mice; p.o. 30 mg/kg, mean): 70.03%
- AUC0-∞ (Pharmacokinetics in mice; p.o. 30 mg/kg, mean): 26362.9 ng·h/mL
- AUClast (Pharmacokinetics in mice; p.o. 30 mg/kg, mean): 26362.2 ng·h/mL
- CLtotal (Pharmacokinetics in mice; p.o. 30 mg/kg, mean): 19.21 mL/min/kg
- Cmax (Pharmacokinetics in mice; p.o. 30 mg/kg, mean): 25100.0 ng/mL
- Kel (Pharmacokinetics in mice; p.o. 30 mg/kg, mean): 0.67 h⁻¹
- T1/2 (Pharmacokinetics in mice; p.o. 30 mg/kg, mean): 1.05 h
- Tmax (Pharmacokinetics in mice; p.o. 30 mg/kg, mean): 0.25 h
- Urine fraction (Renal excretion in rats; Mean): 0.36
- Observed renal plasma clearance (Renal excretion in rats; Rat): 7.7 mL/min/kg
- Concentration corrected for dilution (Renal excretion in rats; rat urine after IV dosing, 400x diluted samples, individual rats R4, R5, R6): 27920.0 ng/mL and 106400.0 ng/mL and 15600.0 ng/mL
- drug eliminated in urine (Renal excretion in rats; rats, i.v. 3 mg/kg): 36-40%
- biopharmaceutical classification system class [3]: class I
- estimated human total clearance ([3]; allometry with MLP correction): 1.8 mL/min/kg
- CL, total ([3]; human predicted): 1.11 mL/min/kg
- V1 ([3]; human predicted): 0.843 L/kg
- V2 ([3]; human predicted): 1.97 L/kg
- Vss ([3]; human predicted): 2.81 L/kg
- half-life ([3]; human predicted): 32.4 h
- CL, renal ([3]; human predicted from dog renal clearance): 0.60 mL/min/kg
- CL, hepatic ([3]; human predicted from in vitro hepatocyte clearance): 0.51 mL/min/kg
- allometric clearance exponent ([3]; simple allometry): 0.967
- %Viability ([4]; Lot R1323T, 0.1 µM): 98%
- %Viability ([4]; Lot R1323T, 0.5 µM): 92%
- %Viability ([4]; Lot R1323T, 1 µM): 88%
- %Viability ([4]; Lot R1323T, 5 µM): 92%
- %Viability ([4]; Lot R1323T, 10 µM): 99%
- %Viability ([4]; Lot S1552T, 0.1 µM): 98%
- %Viability ([4]; Lot S1552T, 0.5 µM): 98%
- %Viability ([4]; Lot S1552T, 1 µM): 102%
- %Viability ([4]; Lot S1552T, 5 µM): 97%
- %Viability ([4]; Lot S1552T, 10 µM): 104%
- IC50 ([4]; primary human hepatocytes): > 10000 nM
- plasma protein binding [5]: 52%
- Human RBCs [6, 7]: 72.9% and 76.8% and 80.6% and 72.4%
- Reticulocytes [6, 7]: 0.38% and 0.65% and 0.32% and 0.87%
- Human RBCs [6, 8]: 67.9% and 72.1% and 75.9% and 68.6%
- Reticulocytes [6, 8]: 0.35% and 0.44% and 0.25% and 0.57%
- Human RBCs [6, 9]: 59.6% and 65.8% and 72.2% and 63.3%
- Reticulocytes [6, 9]: 0.17% and 0.14% (2×) and 0.35%
- Hematocrit ([6]; 10 mg/kg group): 53.45% and 54.69% and 60.66% and 56.45%
- Spleen weight ([6]; 10 mg/kg group): 0.305 % of body weight and 0.306 % of body weight and 0.265 % of body weight and 0.369 % of body weight
- Human RBCs [6, 10]: 78.9% and 75.9% and 78.6% and 71.6% and 75.5%
- Reticulocytes [6, 10]: 0.53% and 0.42% and 0.37% and 0.39% and 0.51%
- Human RBCs [6, 11]: 77.9% and 71.9% and 76% and 64.1% and 70.3%
- Reticulocytes [6, 11]: 0.24% (2×) and 0.32% and 0.61% and 0.43%
- Human RBCs [6, 12]: 77.4% and 67.8% and 68% and 58.3% and 68.8%
- Reticulocytes [6, 12]: 0.16% and 0.23% and 0.17% and 0.22% and 0.15%
- Hematocrit ([6]; 25 mg/kg group): 61.54% and 73.81% and 62.16% and 56.36% and 57.35%
- Spleen weight ([6]; 25 mg/kg group): 0.362 % of body weight and 0.462 % of body weight and 0.396 % of body weight and 0.366 % of body weight and 0.21 % of body weight
- Human RBCs [6, 13]: 75.4% (2×) and 77.9% and 80.2% and 74.5%
- Reticulocytes [6, 13]: 0.4% and 0.55% and 0.42% and 0.47% and 0.58%
- Human RBCs [6, 14]: 72.3% and 72.5% and 71.7% and 73.2% and 70.5%
- Reticulocytes [6, 14]: 0.27% and 0.41% and 0.23% and 0.34% and 0.49%
- Human RBCs [6, 15]: 65.4% and 71.3% and 68.2% and 66% and 66.7%
- Reticulocytes [6, 15]: 0.2% (2×) and 0.1% (2×) and 0.3%
- Hematocrit ([6]; 50 mg/kg group): 60.66% and 63.64% and 71.67% and 53.85% and 57.63%
- Spleen weight ([6]; 50 mg/kg group): 0.357 % of body weight and 0.427 % of body weight and 0.135 % of body weight and 0.294 % of body weight and 0.382 % of body weight
- hemolytic toxicity ([6]; 10, 25, 50 mg/kg for four days): Absence of detectable hemolytic toxicity; also recorded: did not show signs of hemolytic toxicity
